The values below come from patent US8022206B2 (OSI Pharmaceuticals, LLC, priority 2008, dated 2011).

The target of one experiment is RON (human) (Homo sapiens, UniProt Q04912). Description: RON (human) AlphaScreen kinase assay, Km of ATP. It is filed as biochemical. The settings on record: AlphaScreen, Km of ATP; read-out: RON biochemical IC50. In a few lines:
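Detection used PT66 AlphaScreen beads added in Tris pH 7.5/NaCl/EDTA/BSA buffer, read after 1 h incubation. Vehicle-only DMSO wells served as controls.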

The target in the next experiment is MET (human) (Homo sapiens, UniProt P08581). The experiment can be described thus: MET (human) AlphaScreen kinase assay, Km of ATP. The format is biochemical. The settings on record: AlphaScreen, Km of ATP; read-out: Met biochemical IC50. In a few lines:
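Human MET at lot-optimised concentration in 50 mM Tris pH 7.4 buffer with 1 mM DTT, compound at 1% DMSO final; enzyme starts the reaction, 60 min at RT.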

Sequence of RON (human) (Q04912 25-1400): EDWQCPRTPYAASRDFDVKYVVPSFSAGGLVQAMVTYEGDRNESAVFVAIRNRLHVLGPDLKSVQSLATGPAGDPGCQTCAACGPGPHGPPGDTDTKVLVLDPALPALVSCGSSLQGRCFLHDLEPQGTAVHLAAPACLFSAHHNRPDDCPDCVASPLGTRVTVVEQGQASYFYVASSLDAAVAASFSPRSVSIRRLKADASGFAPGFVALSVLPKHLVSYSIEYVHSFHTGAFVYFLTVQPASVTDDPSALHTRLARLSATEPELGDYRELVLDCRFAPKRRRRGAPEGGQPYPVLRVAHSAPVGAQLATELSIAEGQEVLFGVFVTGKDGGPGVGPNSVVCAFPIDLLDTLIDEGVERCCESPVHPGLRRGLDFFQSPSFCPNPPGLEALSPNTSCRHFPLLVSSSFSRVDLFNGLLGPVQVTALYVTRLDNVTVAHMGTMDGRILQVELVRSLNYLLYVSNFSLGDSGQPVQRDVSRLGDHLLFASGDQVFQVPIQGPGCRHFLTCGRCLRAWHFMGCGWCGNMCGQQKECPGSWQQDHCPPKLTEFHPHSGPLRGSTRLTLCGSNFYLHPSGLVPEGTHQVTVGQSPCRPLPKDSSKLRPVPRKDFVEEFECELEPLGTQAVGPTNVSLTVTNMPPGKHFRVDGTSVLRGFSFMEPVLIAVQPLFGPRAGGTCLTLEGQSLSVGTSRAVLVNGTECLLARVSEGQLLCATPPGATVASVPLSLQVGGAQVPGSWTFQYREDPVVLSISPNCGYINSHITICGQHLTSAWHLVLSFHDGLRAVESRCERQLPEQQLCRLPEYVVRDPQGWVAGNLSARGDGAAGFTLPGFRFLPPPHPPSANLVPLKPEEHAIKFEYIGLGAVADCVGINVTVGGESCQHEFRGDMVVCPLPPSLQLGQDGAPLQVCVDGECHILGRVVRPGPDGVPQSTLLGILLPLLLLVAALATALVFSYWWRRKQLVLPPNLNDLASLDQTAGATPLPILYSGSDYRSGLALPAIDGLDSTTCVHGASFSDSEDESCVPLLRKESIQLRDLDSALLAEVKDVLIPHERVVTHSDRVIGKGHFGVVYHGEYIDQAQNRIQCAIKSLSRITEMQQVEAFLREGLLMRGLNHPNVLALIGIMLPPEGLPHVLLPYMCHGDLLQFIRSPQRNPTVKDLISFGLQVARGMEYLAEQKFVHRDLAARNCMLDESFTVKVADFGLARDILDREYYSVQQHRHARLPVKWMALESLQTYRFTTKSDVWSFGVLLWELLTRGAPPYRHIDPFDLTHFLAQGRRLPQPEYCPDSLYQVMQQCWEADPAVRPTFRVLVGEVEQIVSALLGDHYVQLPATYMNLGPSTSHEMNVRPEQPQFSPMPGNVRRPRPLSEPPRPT
Sequence of MET (human) (P08581 25-1390): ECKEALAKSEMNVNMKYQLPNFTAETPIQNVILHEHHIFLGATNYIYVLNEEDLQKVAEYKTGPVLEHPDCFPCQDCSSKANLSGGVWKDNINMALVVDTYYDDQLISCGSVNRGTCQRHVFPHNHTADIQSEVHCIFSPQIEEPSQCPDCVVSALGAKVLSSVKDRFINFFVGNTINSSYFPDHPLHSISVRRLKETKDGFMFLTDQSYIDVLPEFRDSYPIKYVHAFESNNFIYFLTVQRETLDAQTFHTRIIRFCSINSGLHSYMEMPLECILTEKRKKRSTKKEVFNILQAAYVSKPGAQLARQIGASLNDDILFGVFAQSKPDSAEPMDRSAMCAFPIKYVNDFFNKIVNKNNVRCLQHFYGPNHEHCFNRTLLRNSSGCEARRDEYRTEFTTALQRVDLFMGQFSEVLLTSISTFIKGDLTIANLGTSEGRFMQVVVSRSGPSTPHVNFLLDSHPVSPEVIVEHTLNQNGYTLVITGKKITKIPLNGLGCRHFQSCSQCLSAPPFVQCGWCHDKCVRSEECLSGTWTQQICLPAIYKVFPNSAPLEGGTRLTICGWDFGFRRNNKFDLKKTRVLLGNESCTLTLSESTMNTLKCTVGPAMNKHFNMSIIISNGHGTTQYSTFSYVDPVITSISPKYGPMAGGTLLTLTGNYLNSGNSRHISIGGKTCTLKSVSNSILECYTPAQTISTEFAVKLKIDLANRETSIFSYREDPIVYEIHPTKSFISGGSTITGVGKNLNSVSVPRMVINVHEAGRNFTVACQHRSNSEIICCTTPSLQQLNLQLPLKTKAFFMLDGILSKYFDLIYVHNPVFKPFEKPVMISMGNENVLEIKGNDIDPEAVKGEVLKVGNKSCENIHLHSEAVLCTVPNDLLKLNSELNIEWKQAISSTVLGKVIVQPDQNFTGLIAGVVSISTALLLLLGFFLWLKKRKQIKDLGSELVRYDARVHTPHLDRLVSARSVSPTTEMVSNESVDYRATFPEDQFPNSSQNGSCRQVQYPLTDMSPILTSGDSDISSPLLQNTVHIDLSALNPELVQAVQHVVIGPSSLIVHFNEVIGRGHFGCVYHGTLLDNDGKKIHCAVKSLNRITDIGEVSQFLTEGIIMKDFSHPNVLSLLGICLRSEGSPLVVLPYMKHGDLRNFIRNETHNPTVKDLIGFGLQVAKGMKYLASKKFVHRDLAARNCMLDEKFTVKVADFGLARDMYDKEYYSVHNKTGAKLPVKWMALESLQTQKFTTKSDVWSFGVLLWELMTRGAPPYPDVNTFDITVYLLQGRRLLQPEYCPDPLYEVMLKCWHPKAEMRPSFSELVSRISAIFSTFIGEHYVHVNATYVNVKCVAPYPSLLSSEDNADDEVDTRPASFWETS

A word on the IC50: it is the concentration needed to halve the response being measured. As to `C[C@@H](Oc1c(N)ncc2c(-c3csc(C(=O)N(C)C)c3)coc12)c1c(Cl)ccc(F)c1Cl` [Example 317, 4-{6-Amino-7-[(R)-1-(2,6-dichloro-3-fluorophenyl)ethoxy]furo[3,2-c]pyridin-3-yl}thiophene-2-carboxylic acid Dimethylamide], the IC50 at RON (human) and on MET (human) was 0.5 to 5 µM throughout.

Consider `C[C@@H](Oc1c(N)ncc2c(-c3csc(C(N)=O)c3)coc12)c1c(Cl)ccc(F)c1Cl` [Example 318, 4-{6-Amino-7-[(R)-1-(2,6-dichloro-3-fluorophenyl)ethoxy]furo[3,2-c]pyridin-3-yl}thiophene-2-carboxamide], for which the concentration for half-maximal inhibition (IC50) at RON (human) and on MET (human) was 0.5 to 5 µM each time.

With `C[C@@H](Oc1c(N)ncc2c(-c3ccc(N4CCN(C(N)=O)CC4)nc3)coc12)c1c(Cl)ccc(F)c1Cl` [Example 319, 4-(5-{6-Amino-7-[(R)-1-(2,6-dichloro-3-fluorophenyl)ethoxy]furo[3,2-c]pyridin-3-yl}pyridin-2-yl)piperazine-1-carboxamide], the IC50 at RON (human) and on MET (human) was 0.5 to 5 µM each time.

As for `C[C@@H](Oc1c(N)ncc2c(-c3ccc(N4CCN(C(N)=O)CC4)cc3)coc12)c1c(Cl)ccc(F)c1Cl` [Example 320, 4-(4-{6-Amino-7-[(R)-1-(2,6-dichloro-3-fluorophenyl)ethoxy]furo[3,2-c]pyridin-3-yl}phenyl)piperazine-1-carboxamide], the half-maximal inhibitory concentration (IC50) on RON (human) and on MET (human) was 0.5 to 5 µM each time.

As to `C[C@@H](Oc1c(N)ncc2c(C3=CCN(CC#N)CC3)coc12)c1c(Cl)ccc(F)c1Cl` [Example 321, (4-{6-Amino-7-[(R)-1-(2,6-dichloro-3-fluorophenyl)ethoxy]furo[3,2-c]pyridin-3-yl}-3,6-dihydro-2H-pyridin-1-yl)acetonitrile], the 50% inhibitory concentration (IC50) on RON (human) was 0.5 to 5 µM; at MET (human), less than 0.5 µM.

As for `C[C@@H](Oc1c(N)ncc2c(C3=CCN(C4CNC4)CC3)coc12)c1c(Cl)ccc(F)c1Cl` [Example 322, 3-(1-Azetidin-3-yl-1,2,3,6-tetrahydropyridin-4-yl)-7-[(R)-1-(2,6-dichloro-3-fluorophenyl)ethoxy]furo[3,2-c]pyridin-6-ylamine], the IC50 at RON (human) and on MET (human) was less than 0.5 µM in each case.

For `C[C@@H](Oc1c(N)ncc2c(C3=CCN(C4CN(S(C)(=O)=O)C4)CC3)coc12)c1c(Cl)ccc(F)c1Cl` [Example 323], the IC50 on RON (human) and at MET (human) was 0.5 to 5 µM each time.

As to `C[C@@H](Oc1c(N)ncc2c(C3=CCN(C4CN(C(N)=O)C4)CC3)coc12)c1c(Cl)ccc(F)c1Cl` [Example 324, 3-(4-{6-Amino-7-[(R)-1-(2,6-dichloro-3-fluorophenyl)ethoxy]furo[3,2-c]pyridin-3-yl}-3,6-dihydro-2H-pyridin-1-yl)azetidine-1-carboxamide], the IC50 at RON (human) and at MET (human) was less than 0.5 µM each time.

Regarding `C[C@@H](Oc1c(N)ncc2c(-c3cc(C(=O)O)cs3)coc12)c1c(Cl)ccc(F)c1Cl` [Example 325, 5-{6-Amino-7-[(R)-1-(2,6-dichloro-3-fluorophenyl)ethoxy]furo[3,2-c]pyridin-3-yl}thiophene-3-carboxylic acid], the IC50 at RON (human) and on MET (human) was 5 to 20 µM in each case.

Consider `C[C@@H](Oc1c(N)ncc2c(-c3cc(C(N)=O)cs3)coc12)c1c(Cl)ccc(F)c1Cl` [Example 326, 5-{6-Amino-7-[(R)-1-(2,6-dichloro-3-fluorophenyl)ethoxy]furo[3,2-c]pyridin-3-yl}thiophene-3-carboxamide], for which the concentration for half-maximal inhibition (IC50) on RON (human) fell in the range of 5 to 20 µM; at MET (human), 0.5 to 5 µM.

On to `CNC(=O)c1csc(-c2coc3c(O[C@H](C)c4c(Cl)ccc(F)c4Cl)c(N)ncc23)c1` [Example 327, 5-{6-Amino-7-[(R)-1-(2,6-dichloro-3-fluorophenyl)ethoxy]furo[3,2-c]pyridin-3-yl}thiophene-3-carboxylic acid methylamide], for which the IC50 on RON (human) is 5 to 20 µM; on MET (human) it was 0.5 to 5 µM.

With `C[C@@H](Oc1c(N)ncc2c(-c3cc(C(=O)N(C)C)cs3)coc12)c1c(Cl)ccc(F)c1Cl` [Example 328, 5-{6-Amino-7-[(R)-1-(2,6-dichloro-3-fluorophenyl)ethoxy]furo[3,2-c]pyridin-3-yl}thiophene-3-carboxylic acid Dimethylamide], the IC50 on RON (human) and on MET (human) was 0.5 to 5 µM throughout.

Take `CCNC(=O)c1csc(-c2coc3c(O[C@H](C)c4c(Cl)ccc(F)c4Cl)c(N)ncc23)c1` [Example 329, 5-{6-Amino-7-[(R)-1-(2,6-dichloro-3-fluorophenyl)ethoxy]furo[3,2-c]pyridin-3-yl}-thiophene-3-carboxylic acid Ethylamide]: the results for the IC50 at RON (human) and at MET (human) were 5 to 20 µM and 0.5 to 5 µM, respectively.

As to `CC(C)NC(=O)c1csc(-c2coc3c(O[C@H](C)c4c(Cl)ccc(F)c4Cl)c(N)ncc23)c1` [Example 330, 5-{6-Amino-7-[(R)-1-(2,6-dichloro-3-fluorophenyl)ethoxy]furo[3,2-c]pyridin-3-yl}thiophene-3-carboxylic acid Isopropylamide], the concentration for half-maximal inhibition (IC50) at RON (human) and at MET (human) was 5 to 20 µM each time.

Consider `C[C@@H](Oc1c(N)ncc2c(-c3cc(C(=O)NC(C)(C)C)cs3)coc12)c1c(Cl)ccc(F)c1Cl` [Example 331, 5-{6-Amino-7-[(R)-1-(2,6-dichloro-3-fluorophenyl)ethoxy]furo[3,2-c]pyridin-3-yl}thiophene-3-carboxylic acid tert-butylamide], for which the results for the IC50 at RON (human) and on MET (human) were 5 to 20 µM and 0.5 to 5 µM, respectively.

Turning to `C[C@@H](Oc1c(N)ncc2c(-c3cc(C(=O)N4CCN(C)CC4)cs3)coc12)c1c(Cl)ccc(F)c1Cl` [Example 332, (5-{6-Amino-7-[(R)-1-(2,6-dichloro-3-fluorophenyl)ethoxy]furo[3,2-c]pyridin-3-yl}thiophen-3-yl)-(4-methylpiperazin-1-yl)methanone], the figures for the half-maximal inhibitory concentration (IC50) on RON (human) and at MET (human) were 5 to 20 µM and 0.5 to 5 µM, respectively.

`C[C@@H](Oc1c(N)ncc2c(-c3cnn(C4CCNCC4)c3)coc12)c1ccccc1Cl` [Example 335, 7-[(R)-1-(2-Chlorophenyl)ethoxy]-3-(1-piperidin-4-yl-1H-pyrazol-4-yl)-furo[3,2-c]pyridin-6-ylamine]: the IC50 was 0.5 to 5 µM on RON (human) and less than 0.5 µM on MET (human).

Take `C[C@@H](Oc1c(N)ncc2c(-c3cnn(C4CCNCC4)c3)coc12)c1cccc(F)c1` [Example 337, 7-[(R)-1-(3-fluorophenyl)ethoxy]-3-(1-piperidin-4-yl-1H-pyrazol-4-yl)-furo[3,2-c]pyridin-6-ylamine]: the IC50 on RON (human) was 0.5 to 5 µM; on MET (human), less than 0.5 µM.

Regarding `CCC(Oc1c(N)ncc2c(-c3cnn(C4CCNCC4)c3)coc12)c1c(Cl)cccc1Cl` (centres unmarked) [Example 340, 7-[1-(2,6-Dichlorophenyl)propoxy]-3-(1-piperidin-4-yl-1H-pyrazol-4-yl)furo[3,2-c]pyridin-6-ylamine], the half-inhibitory concentration (IC50) on RON (human) was 0.5 to 5 µM; at MET (human), less than 0.5 µM.

With `C#CCC(Oc1c(N)ncc2c(-c3cnn(C4CCNCC4)c3)coc12)c1c(Cl)cccc1Cl` (centres unmarked) [Example 341, 7-[1-(2,6-Dichlorophenyl)but-3-ynyloxy]-3-(1-piperidin-4-yl-1H-pyrazol-4-yl)-furo[3,2-c]pyridin-6-ylamine], the IC50 at RON (human) and on MET (human) was less than 0.5 µM each time.

Regarding `Cc1ccccc1C(C)Oc1c(N)ncc2c(-c3cnn(C4CCNCC4)c3)coc12` (centres unmarked) [Example 342, 3-(1-Piperidin-4-yl-1H-pyrazol-4-yl)-7-(1-o-tolylethoxy)furo[3,2-c]pyridin-6-ylamine], the IC50 at RON (human) was 0.5 to 5 µM; at MET (human) it was less than 0.5 µM.

Consider `Cc1cccc(C(C)Oc2c(N)ncc3c(-c4cnn(C5CCNCC5)c4)coc23)c1` (centres unmarked) [Example 343, 3-(1-Piperidin-4-yl-1H-pyrazol-4-yl)-7-(1-m-tolylethoxy)furo[3,2-c]pyridin-6-ylamine], for which the 50% inhibitory concentration (IC50) at RON (human) and at MET (human) was 0.5 to 5 µM each time.

Consider `Cc1ccc(C(C)Oc2c(N)ncc3c(-c4cnn(C5CCNCC5)c4)coc23)cc1` (centres unmarked) [Example 344, 3-(1-Piperidin-4-yl-1H-pyrazol-4-yl)-7-(1-p-tolylethoxy)furo[3,2-c]pyridin-6-ylamine], for which the half-maximal inhibitory concentration (IC50) at RON (human) and on MET (human) was 0.5 to 5 µM each time.

On to `COc1cccc(C(C)Oc2c(N)ncc3c(-c4cnn(C5CCNCC5)c4)coc23)c1` (centres unmarked) [Example 345, 7-[1-(3-Methoxyphenyl)-ethoxy]-3-(1-piperidin-4-yl-1H-pyrazol-4-yl)furo[3,2-c]pyridin-6-ylamine], for which the IC50 on RON (human) and at MET (human) was 0.5 to 5 µM each time.

`CC(Oc1c(N)ncc2c(-c3cnn(C4CCNCC4)c3)coc12)c1ccccc1C(F)(F)F` (centres unmarked) [Example 346, 3-(1-Piperidin-4-yl-1H-pyrazol-4-yl)-7-[1-(2-trifluoromethyl-phenyl)ethoxy]furo[3,2-c]pyridin-6-ylamine]: the IC50 at RON (human) and on MET (human) was 0.5 to 5 µM throughout.

Turning to `CC(Oc1c(N)ncc2c(-c3cnn(C4CCNCC4)c3)coc12)c1cccc(C(F)(F)F)c1` (centres unmarked) [Example 347, 3-(1-Piperidin-4-yl-1H-pyrazol-4-yl)-7-[1-(3-trifluoromethyl-phenyl)ethoxy]furo[3,2-c]pyridin-6-ylamine], the values for the IC50 at RON (human) and at MET (human) were 0.5 to 5 µM and less than 0.5 µM, respectively.

With `CC(Oc1c(N)ncc2c(-c3cnn(C4CCNCC4)c3)coc12)c1ccc(C(F)(F)F)cc1` (centres unmarked) [Example 348, 3-(1-Piperidin-4-yl-1H-pyrazol-4-yl)-7-[1-(4-trifluoromethyl-phenyl)ethoxy]furo[3,2-c]pyridin-6-ylamine], the half-maximal inhibitory concentration (IC50) at RON (human) was 0.5 to 5 µM; at MET (human) it was less than 0.5 µM.

Turning to `CC(Oc1c(N)ncc2c(-c3cnn(C4CCNCC4)c3)coc12)c1cccc(OC(F)(F)F)c1` (centres unmarked) [Example 352, 3-(1-Piperidin-4-yl-1H-pyrazol-4-yl)-7-[1-(3-trifluoromethoxy-phenyl)ethoxy]furo[3,2-c]pyridin-6-ylamine], the IC50 on RON (human) and at MET (human) was 0.5 to 5 µM each time.
